According to patent US11634447B2 (priority 2012, dated 2023):
Where two headings read alike, the source gives them in different places.

Test system: bacterial strain LF82 binding to the glycoprotein BSA-(Mannose)3
Assay: Bacterial Binding Assay (BBA)
Type: cell-based, Escherichia coli
Summary of the method: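 Inhibition of LF82/luciferase E. coli adhesion is read as luminescence after washing off unbound cells. Compound and bacteria (10^7 per well) are co-incubated 40-75 min at room temperature on wells coated with 0.5-2 μg/mL BSA-(Man)3, with BSA-only wells as background; IC50 values derived.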

[1] = read-out: Bacterial Binding Assay IC50, LF82/Luciferase strain binding to BSA-(Man)3 coated plates, luminescence

SMILES | IC50 [1] [nM] | IC50 (LF82/Luciferase strain binding to BSA-(Man)3 coated plates, luminescence, read-out: Bacterial Binding Assay IC50) [nM]
CO[C@H](C)C(=O)c1c(C#C[C@H]2O[C@H](CO)[C@@H](O)[C@H](O)[C@@H]2O)ccc2c1C1(CCNCC1)c1cc(C#C[C@H]3O[C@H](CO)[C@@H](O)[C@H](O)[C@@H]3O)ccc1-2 [Compound 229, (2R)-1-[2,7-bis[2-[(2R,3S,4R,5S,6R)-3,4,5-trihydroxy-6-(hydroxymethyl)tetrahydropyran-2-yl]ethynyl]spiro[fluorene-9,4piperidine]-1yl]-2-methoxy-propan-1-one] | 0.35 | 
Cc1cc(C#C[C@H]2O[C@H](CO)[C@@H](O)[C@H](O)[C@@H]2O)cc(C)c1C#C[C@H]1O[C@H](CO)[C@@H](O)[C@H](O)[C@@H]1O [Compound 100, (2R,3S,4R,5S,6R)-2-[2-[3,5-dimethyl-4-[2-[(2R,3S,4R,5S,6R)-3,4,5-trihydroxy-6-(hydroxymethyl)tetrahydropyran-2-yl]ethynyl]phenyl]ethynyl]-6-(hydroxymethyl)tetrahydropyran-3,4,5-triol] | 28 | 
O=C(c1c(C#C[C@H]2O[C@H](CO)[C@@H](O)[C@H](O)[C@@H]2O)ccc2c1C1(CCNCC1)c1cc(C#C[C@H]3O[C@H](CO)[C@@H](O)[C@H](O)[C@@H]3O)ccc1-2)[C@H]1CCCO1 [Compound 233, [2,7-bis[2-[(2R,3S,4R,5S,6R)-3,4,5-trihydroxy-6-(hydroxymethyl)tetrahydropyran-2-yl]ethynyl]spiro[fluorene-9,4piperidine]-1yl]-[(2R)-tetrahydrofuran-2-yl]methanone] | 0.05 | 
OC[C@H]1O[C@H](C#Cc2cc(C#C[C@H]3O[C@H](CO)[C@@H](O)[C@H](O)[C@@H]3O)c3[nH]ncc3c2)[C@@H](O)[C@@H](O)[C@@H]1O [Compound 212, (2R,3S,4R,5S,6R)-2-(hydroxymethyl)-6-[2-[7-[2-[(2R,3S,4R,5S,6R)-3,4,5-trihydroxy-6-(hydroxymethyl)tetrahydropyran-2-yl]ethynyl]-1H-indazol-5-yl]ethynyl]tetrahydropyran-3,4,5-triol] | 4.9 | 
OC[C@H]1O[C@H](C#Cc2ccc(C#C[C@H]3O[C@H](CO)[C@@H](O)[C@H](O)[C@@H]3O)c3[nH]ncc23)[C@@H](O)[C@@H](O)[C@@H]1O [Compound 171, (2R,3S,4R,5S,6R)-2-(hydroxymethyl)-6-[2-[7-[2-[(2R,3S,4R,5S,6R)-3,4,5-trihydroxy-6-(hydroxymethyl)tetrahydropyran-2-yl]ethynyl]-1H-indazol-4-yl]ethynyl]tetrahydropyran-3,4,5-triol] | 13 | 
O=C1CC[C@@H](C(=O)c2c(C#C[C@H]3O[C@H](CO)[C@@H](O)[C@H](O)[C@@H]3O)ccc3c2C2(CCNCC2)c2cc(C#C[C@H]4O[C@H](CO)[C@@H](O)[C@H](O)[C@@H]4O)ccc2-3)N1 [Compound 244, (5S)-5-[2,7-bis[2-[(2R,3S,4R,5S,6R)-3,4,5-trihydroxy-6-(hydroxymethyl)tetrahydropyran-2-yl]ethynyl]spiro[fluorene-9,4piperidine]-1carbonyl]pyrrolidin-2-one] | 0.24 | 
CCCCCC1(O)c2cc(C#C[C@H]3O[C@H](CO)[C@@H](O)[C@H](O)[C@@H]3O)ccc2-c2ccc(C#C[C@H]3O[C@H](CO)[C@@H](O)[C@H](O)[C@@H]3O)cc21 [Compound 113, (2R,3S,4R,5S,6R)-2-(hydroxymethyl)-6-[2-[9-hydroxy-9-pentyl-7-[2-[(2R,3S,4R,5S,6R)-3,4,5-trihydroxy-6-(hydroxymethyl)tetrahydropyran-2-yl]ethynyl]fluoren-2-yl]ethynyl]tetrahydropyran-3,4,5-triol] | 5.5 | 
O=C(c1c(C#C[C@H]2O[C@H](CO)[C@@H](O)[C@H](O)[C@@H]2O)ccc2c1C1(CCNCC1)c1cc(C#C[C@H]3O[C@H](CO)[C@@H](O)[C@H](O)[C@@H]3O)ccc1-2)C1CC1(F)F (stereo partly drawn) [Compound 235, [2,7-bis[2-[(2R,3S,4R,5S,6R)-3,4,5-trihydroxy-6-(hydroxymethyl)tetrahydropyran-2-yl]ethynyl]spiro[fluorene-9,4piperidine]-1yl]-(2,2-difluorocyclopropyl)methanone] | 0.03 | 
CCC1(O)c2cc(C#C[C@H]3O[C@H](CO)[C@@H](O)[C@H](O)[C@@H]3O)ccc2-c2ccc(C#C[C@H]3O[C@H](CO)[C@@H](O)[C@H](O)[C@@H]3O)cc21 [Compound 166, (2R,3S,4R,5S,6R)-2-[2-[9-ethyl-9-hydroxy-7-[2-[(2R,3S,4R,5S,6R)-3,4,5-trihydroxy-6-(hydroxymethyl)tetrahydropyran-2-yl]ethynyl]fluoren-2-yl]ethynyl]-6-(hydroxymethyl)tetrahydropyran-3,4,5-triol] | 3 | 
COc1cc([C@H]2O[C@H](CO)[C@@H](O)[C@H](O)[C@@H]2O)ccc1C#C[C@H]1O[C@H](CO)[C@@H](O)[C@H](O)[C@@H]1O [Compound 145] | 430 | 
COCc1cc(C#C[C@H]2O[C@H](CO)[C@@H](O)[C@H](O)[C@@H]2O)ccc1C#C[C@H]1O[C@H](CO)[C@@H](O)[C@H](O)[C@@H]1O [Compound 79, (2R,3S,4R,5S,6R)-2-(hydroxymethyl)-6-[2-[3-(methoxymethyl)-4-[2-[(2R,3S,4R,5S,6R)-3,4,5-trihydroxy-6-(hydroxymethyl)tetrahydropyran-2-yl]ethynyl]phenyl]ethynyl]tetrahydropyran-3,4,5-triol] | 37 | 
COc1cc(C#C[C@H]2O[C@H](CO)[C@@H](O)[C@H](O)[C@@H]2O)c(OC)cc1C#C[C@H]1O[C@H](CO)[C@@H](O)[C@H](O)[C@@H]1O [Compound 96, (2R,3S,4R,5S,6R)-2-[2-[2,5-dimethoxy-4-[2-[(2R,3S,4R,5S,6R)-3,4,5-trihydroxy-6-(hydroxymethyl)tetrahydropyran-2-yl]ethynyl]phenyl]ethynyl]-6-(hydroxymethyl)tetrahydropyran-3,4,5-triol] | 66 | 
CN1CCN(C2c3cc(C#C[C@H]4O[C@H](CO)[C@@H](O)[C@H](O)[C@@H]4O)ccc3-c3ccc(C#C[C@H]4O[C@H](CO)[C@@H](O)[C@H](O)[C@@H]4O)cc32)CC1 [Compound 198, (2R,3S,4R,5S,6R)-2-(hydroxymethyl)-6-[2-[9-(4-methylpiperazin-1-yl)-7-[2-[(2R,3S,4R,5S,6R)-3,4,5-trihydroxy-6-(hydroxymethyl)tetrahydropyran-2-yl]ethynyl]-9H-fluoren-2-yl]ethynyl]tetrahydropyran-3,4,5-triol] | 24 | 
N#CC1(C(=O)c2c(C#C[C@H]3O[C@H](CO)[C@@H](O)[C@H](O)[C@@H]3O)ccc3c2C2(CCNCC2)c2cc(C#C[C@H]4O[C@H](CO)[C@@H](O)[C@H](O)[C@@H]4O)ccc2-3)CC1 [Compound 230, 1-[2,7-bis[2-[(2R,3S,4R,5S,6R)-3,4,5-trihydroxy-6-(hydroxymethyl)tetrahydropyran-2-yl]ethynyl]spiro[fluorene-9,4piperidine]-1carbonyl]cyclopropanecarbonitrile] | 0.16 | 
COc1c(C#C[C@H]2O[C@H](CO)[C@@H](O)[C@H](O)[C@@H]2O)ccc2c(OC)c(C#C[C@H]3O[C@H](CO)[C@@H](O)[C@H](O)[C@@H]3O)ccc12 [Compound 125, (2R,3S,4R,5S,6R)-2-[2-[1,5-dimethoxy-6-[2-[(2R,3S,4R,5S,6R)-3,4,5-trihydroxy-6-(hydroxymethyl)tetrahydropyran-2-yl]ethynyl]-2-naphthyl]ethynyl]-6-(hydroxymethyl)tetrahydropyran-3,4,5-triol] | 54 | 
OC[C@H]1O[C@H](C#Cc2ccc3c(c2)C2(CC(O)C(O)CO2)c2cc(C#C[C@H]4O[C@H](CO)[C@@H](O)[C@H](O)[C@@H]4O)ccc2-3)[C@@H](O)[C@@H](O)[C@@H]1O (stereo partly drawn) [Compound 197] |  | 0.83
OC[C@H]1O[C@H](C#Cc2csc3c(C#C[C@H]4O[C@H](CO)[C@@H](O)[C@H](O)[C@@H]4O)csc23)[C@@H](O)[C@@H](O)[C@@H]1O [Compound 132, (2R,3S,4R,5S,6R)-2-(hydroxymethyl)-6-[2-[6-[2-[(2R,3S,4R,5S,6R)-3,4,5-trihydroxy-6-(hydroxymethyl)tetrahydropyran-2-yl]ethynyl]thieno[3,2-b]thiophen-3-yl]ethynyl]tetrahydropyran-3,4,5-triol] | 52 | 
O=C(c1c(C#C[C@H]2O[C@H](CO)[C@@H](O)[C@H](O)[C@@H]2O)ccc2c1C1(CCNCC1)c1cc(C#C[C@H]3O[C@H](CO)[C@@H](O)[C@H](O)[C@@H]3O)ccc1-2)[C@@H]1CCCO1 [Compound 242, [2,7-bis[2-[(2R,3S,4R,5S,6R)-3,4,5-trihydroxy-6-(hydroxymethyl)tetrahydropyran-2-yl]ethynyl]spiro[fluorene-9,4piperidine]-1yl]-[(2S)-tetrahydrofuran-2-yl]methanone] | 0.18 | 
CC1(C)c2cc(C#C[C@H]3O[C@H](CO)[C@@H](O)[C@H](O)[C@@H]3O)ccc2-c2ccc(C#C[C@H]3O[C@H](CO)[C@@H](O)[C@H](O)[C@@H]3O)cc21 [Compound 120, (2R,3S,4R,5S,6R)-2-[2-[9,9-dimethyl-7-[2-[(2R,3S,4R,5S,6R)-3,4,5-trihydroxy-6-(hydroxymethyl)tetrahydropyran-2-yl]ethynyl]fluoren-2-yl]ethynyl]-6-(hydroxymethyl)tetrahydropyran-3,4,5-triol] | 1.2 | 
Cn1nccc1C(=O)c1c(C#C[C@H]2O[C@H](CO)[C@@H](O)[C@H](O)[C@@H]2O)ccc2c1C1(CCNCC1)c1cc(C#C[C@H]3O[C@H](CO)[C@@H](O)[C@H](O)[C@@H]3O)ccc1-2 [Compound 237, [2,7-bis[2-[(2R,3S,4R,5S,6R)-3,4,5-trihydroxy-6-(hydroxymethyl)tetrahydropyran-2-yl]ethynyl]spiro[fluorene-9,4piperidine]-1yl]-(2-methylpyrazol-3-yl)methanone] | 0.22 | 
O=C(O)Cn1c2cc(C#C[C@H]3O[C@H](CO)[C@@H](O)[C@H](O)[C@@H]3O)ccc2c2ccc(C#C[C@H]3O[C@H](CO)[C@@H](O)[C@H](O)[C@@H]3O)cc21 [Compound 176, 2-[2,7-Bis[2-[(2R,3S,4R,5S,6R)-3,4,5-trihydroxy-6-(hydroxymethyl)tetrahydropyran-2-yl]ethynyl]carbazol-9-yl]acetic acid] | 10 | 
